Like-named read-outs stand apart in the source and are kept apart here.
Target: T1, (Homo sapiens, UniProt Q96P20)
T1 construct: IL-1β ELISA of supernatant
Experiment: IL-1β secretion assay in THP-1 cells (PMA differentiated, LPS and nigericin stimulated; ELISA)
Format: cell-based
Protocol: Biochemical Assay of the Compounds
Procedure for Culturing THP-1 Cells
Compounds as provided herein were tested in the following assay. Cell culture medium employed contained RPMI 1640 medium (89%), FBS (10%), Pen/Strep (1%), and 2-mercaptoethanol (0.05 mM). Freezing medium was made up of 90% FBS and 10% DMSO. THP-1 cells were removed from the liquid nitrogen and placed into a 37 °C water bath to thaw, until signs of ice dissipated. The cells were then added to 9 mL of warm cell culture medium and centrifuged for 5 minutes at 1000 rpm. The supernatant was discarded, and the cells were resuspended in new cell culture medium. THP-1 cells were then split and cultured in the cell culture medium, being passaged every 2-3 days with the cell density will be maintained between 5×10^5 and 1.5×10^6 viable cells/mL.
To freeze, cells were resuspended with fresh freezing medium, adjusting the cell density to 5×10^6 cells/mL. The cell suspension was partitioned into 1 mL aliquots per vial, and the vials were transferred to a −80 °C freezer. After one day at −80 °C, the cell vials were transferred to liquid nitrogen freezer for storage.
Procedure for IL-Iβ Secretion Assay in 384-Well Plates
PMA was dissolved in DMSO to make a stock solution at 5 mg/ml and stored in 10 μl aliquots at −20 °C for single use. PMA is added to normal growth medium. LPS was diluted with 1 mL of water solution to provide a 1 mg/mL stock solution and stored in 15 μL aliquots at −20 °C for single use. Nigericin is diluted in ice cold 100% ethanol to 5 mg/ml (6.7 mM) and stored in 75 μL aliquots at −20 °C for single use. Serum-free media contains RPMI 1640 medium (99%), Pen/Strep (1%), and 2-mercaptoethanol (0.05 mM). The two control conditions used to qualify and normalize test compound dose-response curves were as follows: High Control=25 ng/mL LPS, 5 μM Nigericin, 0.5% DMSO, Low Control=25 ng/ml, LPS, 0.5% DMSO.
Day 1: Differentiation with PMA
THP-1 cells were diluted to provide a suspension at a concentration of 1.0×10^6 cells/mL with the total volume of suspension required to enable the desired number of assay plates. The growth media was supplemented with PMA (5 ng/mL final concentration) and the cells were incubated at 37 °C under a humidified atmosphere of 5% CO2 for 40 h.
Day 3: Plating with Sequential LPS and Nigericin Stimulation
All media was carefully aspirated from each culture flask. The cells were washed carefully with 1× DPBS. The cells were then briefly digested with trypsin LE for 5 minutes at 23 °C and immediately resuspended in cell growth media. After resuspension, the cells were centrifuged at 1000 rpm for 3 minutes and the supernatant was discarded. The cells were resuspended in DPBS and once again centrifuged at 1000 rpm for 5 minutes. The supernatant was discarded and the cell pellet was resuspended in serum-free media supplemented with LPS (25 ng/mL final concentration) to enable the distribution of 30K THP-1 cells within 45 μL of media into each well of 384-well PDL-coated plates. The 384-well plates were then incubated at 37 °C under a humidified atmosphere of 5% CO2 for 2 h. Following this period, test compounds were dispensed by Tecan across the desired concentration range with all wells normalized to a final 0.5% DMSO concentration. The plates were then then incubated at 37 °C under a humidified atmosphere of 5% CO2 for 1 h. Following this period, 5 μL of the […] nigericin stock solution was added to each of the appropriate wells and plates were centrifuged at 1000 rpm for 30 seconds. The plates were the immediately reintroduced to the incubator at 37 °C under a humidified atmosphere of 5% CO2 for 2 h. After this time, 35 μL/well of supernatant was collected and transferred into v-bottom plate and centrifuged at 1000 rpm for 1 minute. These supernatant aliquots were analyzed using an IL-Iβ detection kit as described below. If needed, the test samples could be snap frozen and stored at −80 °C until analyzed. […]

[1] = inhibition of IL-1β secretion, 25 ng/mL LPS, 5 μM Nigericin, 0.5% DMSO, read-out: Activity (IC50)
[2] = inhibition of IL-1β secretion, 25 ng/mL LPS, 5 μM Nigericin, 0.5% DMSO, read-out: Activity (IC50 class)

T1 sequence (Q96P20 whole entry): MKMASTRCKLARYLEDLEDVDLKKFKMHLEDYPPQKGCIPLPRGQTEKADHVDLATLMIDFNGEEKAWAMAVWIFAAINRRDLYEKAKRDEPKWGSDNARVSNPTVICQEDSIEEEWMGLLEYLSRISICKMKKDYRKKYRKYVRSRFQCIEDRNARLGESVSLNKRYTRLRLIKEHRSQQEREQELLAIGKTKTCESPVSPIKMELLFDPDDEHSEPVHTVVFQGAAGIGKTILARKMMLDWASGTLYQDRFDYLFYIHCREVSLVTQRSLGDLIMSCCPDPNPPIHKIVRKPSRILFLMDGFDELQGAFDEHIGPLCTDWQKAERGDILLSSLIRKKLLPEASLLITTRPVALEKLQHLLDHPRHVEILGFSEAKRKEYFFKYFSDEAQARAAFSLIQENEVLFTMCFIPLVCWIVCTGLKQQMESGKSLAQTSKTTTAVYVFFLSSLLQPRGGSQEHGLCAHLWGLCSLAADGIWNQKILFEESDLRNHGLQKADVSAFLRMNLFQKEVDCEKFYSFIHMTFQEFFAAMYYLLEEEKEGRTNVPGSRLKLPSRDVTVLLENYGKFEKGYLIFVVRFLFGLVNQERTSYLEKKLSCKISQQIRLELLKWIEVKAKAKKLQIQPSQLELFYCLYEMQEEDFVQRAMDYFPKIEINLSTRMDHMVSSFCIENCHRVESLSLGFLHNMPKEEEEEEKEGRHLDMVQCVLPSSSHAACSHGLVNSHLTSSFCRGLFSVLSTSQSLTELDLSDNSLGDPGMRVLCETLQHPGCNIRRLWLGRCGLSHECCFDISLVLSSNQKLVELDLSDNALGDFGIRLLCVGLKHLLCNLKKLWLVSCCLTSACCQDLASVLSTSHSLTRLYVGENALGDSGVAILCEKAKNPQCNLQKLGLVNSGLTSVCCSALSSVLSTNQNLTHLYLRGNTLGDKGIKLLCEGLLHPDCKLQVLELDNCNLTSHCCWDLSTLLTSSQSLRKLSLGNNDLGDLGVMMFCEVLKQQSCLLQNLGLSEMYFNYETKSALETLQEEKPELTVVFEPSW

SMILES | IC50 [1] [nM] | IC50 [2] [nM] | IC50 (read-out: Activity (IC50), inhibition of IL-1β secretion, 25 ng/mL LPS, 5 μM Nigericin, 0.5% DMSO) [nM] | IC50 (read-out: Activity (IC50 class), inhibition of IL-1β secretion, 25 ng/mL LPS, 5 μM Nigericin, 0.5% DMSO) [nM]
O=C(CN1C(=O)c2ccc(Br)cc2[C@]2(C(F)(F)F)C[C@H]12)Nc1ncc(F)cn1 (single isomer, unassigned) [compound 3, 2-[trans-6-bromo-3-oxo-7b-(trifluoromethyl)-1,1a-dihydrocyclopropa[c]isoquinolin-2-yl]-N-(5-fluoropyrimidin-2-yl) acetamide] | 9500 | 1000 to 10000 |  | 
O=C(CN1C(=O)c2ccc(Br)cc2[C@@H]2CCC[C@@H]21)Nc1ncc(F)cn1 (relative stereo) [compound 1, 2-(cis-8-bromo-5-oxo-2,3,3a,9b-tetrahydro-1H-cyclopenta[c]isoquinolin-4-yl)-N-(5-fluoropyrimidin-2-yl) acetamide] |  |  | 700 | < 1000
O=C(CN1C(=O)c2ccc(Br)cc2[C@@H]2C[C@@H]21)Nc1ncc(F)cn1 (relative stereo) [compound 5, 2-(cis-6-bromo-3-oxo-1a,7b-dihydro-1H-cyclopropa[c]isoquinolin-2-yl)-N-(5-fluoropyrimidin-2-yl) acetamide] | 800 | < 1000 |  | 
O=C(CN1C(=O)c2ccc(Br)cc2[C@]2(C(F)(F)F)C[C@H]12)Nc1ncc(F)cn1 (single isomer, unassigned) [compound 2, 2-[trans-6-bromo-3-oxo-7b-(trifluoromethyl)-1,1a-dihydrocyclopropa[c]isoquinolin-2-yl]-N-(5-fluoropyrimidin-2-yl) acetamide] | 270 | < 1000 |  | 
O=C(CN1C(=O)c2ccc(Br)cc2[C@@H]2CC[C@@H]21)Nc1ncc(F)cn1 (relative stereo) [compound 4, 2-(cis-7-bromo-4-oxo-1,2,2a,8b-tetrahydrocyclobuta[c]isoquinolin-3-yl)-N-(5-fluoropyrimidin-2-yl) acetamide] | 240 | < 1000 |  | 
